Assay results: patent US20060229358A1, “Pharmaceutical composition containing flavonoids” (Taipei Medical University, priority 2005, published 2006)
Where two headings read alike, the source gives them in different places.

Key:
[1] = system: PDE3; assay: Inhibition of cyclic nucleotide PDE activity (Assay I), PDE3; format: biochemical, guinea pig; details: mean ± S.E.M. (n); read-out: IC50 on phosphodiesterase isozyme 3
Method: (§1) Under a protocol approved by the Animal Care and Use Committee of Taipei Medical University, five male guinea pigs (Hartley), weighing 500-600 g, were sacrificed. The lungs (15 g) or hearts (4 g) taken therefrom were chopped into small pieces and homogenized with a glass/teflon homogenizer (Glas-Col, Terre Haute, Ind., USA) in 10 volumes of cold medium (pH 6.5) containing 20 mM Bis-Tris, 2 mM benzamidine, 2 mM EDTA, 50 mM sodium chloride, 0.1 mM phenylmethanesulfonyl fluoride (PMSF), and 1 mM dithiothreitol. At 4° C., the homogenate was centrifuged at 170 g for 15 min, and the supernatant thereof was then re-centrifuged at 40,000 g for 30 min. […] The column was washed with two bed volumes of homogenate buffer to remove unbound material, where the resin beads therein will bind with proteins, such as PDE proteins. Proteins bound to the Q-sepharose beads were eluted with various concentrations (0.23, 0.34, 0.44, 0.69, and 1.00 M) of NaCl dissolved in homogenate buffer (for each concentration, 40-50 mL elution buffer were applied) at a flow rate of 30 ml/h. Fractions (3 ml each) were collected, and ethylene glycol (EG) was added thereto until a final concentration of 30% (v/v). And then the samples were frozen at −70° C.
(§2) The activities of PDE1-5 in the homogenate were measured with a two-step procedure according to the method of Thompson and Appleman, using cAMP with [^3H]-cAMP or cGMP with [^3 H]-cGMP as substrates. The PDE enzyme prepared (25 μl) with 10 μl inhibitor or the solvents therefor was incubated for 30 min at 37° C. in a total assay buffer, where the final volume of the assay is amounted to 100 μl. In accordance with the features of the PDE isozymes, the assay buffer contains 50 mM Tris/HCl (pH 7.4), 3 mM MgCl2, 1 mM dithiothreitol, and 0.05% BSA, and optionally contains 1 uM cAMP with 0.2 μCi [^3H]-cAMP as a substrate alone or in the presence of 0.1 unit calmodulin with 10 μM CaCl2, or 5 μM cGMP, and 1 μM cGMP with 0.2 μCi [^3H]-cGMP as another substrate alone or in the presence of 0.1 unit calmodulin with 10 μM CaCl2.
(§3) The PDE enzyme and the inhibitors (or their solvent) therefor were mixed and incubated on ice for 30 min previously, and then mixed with the assay buffer. The assay was initiated by transferring the mixture to a water bath at 37° C. Following the other 30 min incubation, the reaction was stopped by transferring the reaction vessel to a bath of boiling water for 3 min. After cooling on ice, 20 μl of the 1 mg/ml of Crotalus atrox venom was added to the reaction mixture, and the mixture was incubated at 37° C. for 10 min. The uncatalyzed substrates, such as cAMP, [^3H]-cAMP, cGMP, or [^3H]-cGMP were removed by the addition of 500 μl of a 1-in-1 Tris-HCl (40 mM) buffer suspension of Dowex resin (1×8-200) with incubation on ice for 30 min, since the bindings of the cyclic nucleotides and the resin. Each tube was then centrifuged for 2 min at 6000 rpm, and 100 μl of the supernatant was removed and counted by a β-counter for calculating the enzyme (PDEs) activity.
(§4) The IC50 values of flavonoids and various reference drugs were calculated using non-linear regression analysis by the software SigmaPlot 7.0 (Sigma Chemical, St. Louis Mo., USA). All values are shown as the mean±S.E.M. Differences among values, which are equal or greater to three groups, were statistically calculated by one-way analysis of variance (ANOVA), and then determined by the least significant difference (LSD). The difference between two values, however, was determined by use of Student's unpaired t-test. Differences were considered statistically significant if the P-value was less than 0.05.

[2] = molecular target: T1, PDE2 (Cavia porcellus, UniProt A0A286XUV5); assay: Inhibition of cyclic nucleotide PDE activity (Assay I), PDE2; format: biochemical, guinea pig
T1 sequence (A0A286XUV5 22-936): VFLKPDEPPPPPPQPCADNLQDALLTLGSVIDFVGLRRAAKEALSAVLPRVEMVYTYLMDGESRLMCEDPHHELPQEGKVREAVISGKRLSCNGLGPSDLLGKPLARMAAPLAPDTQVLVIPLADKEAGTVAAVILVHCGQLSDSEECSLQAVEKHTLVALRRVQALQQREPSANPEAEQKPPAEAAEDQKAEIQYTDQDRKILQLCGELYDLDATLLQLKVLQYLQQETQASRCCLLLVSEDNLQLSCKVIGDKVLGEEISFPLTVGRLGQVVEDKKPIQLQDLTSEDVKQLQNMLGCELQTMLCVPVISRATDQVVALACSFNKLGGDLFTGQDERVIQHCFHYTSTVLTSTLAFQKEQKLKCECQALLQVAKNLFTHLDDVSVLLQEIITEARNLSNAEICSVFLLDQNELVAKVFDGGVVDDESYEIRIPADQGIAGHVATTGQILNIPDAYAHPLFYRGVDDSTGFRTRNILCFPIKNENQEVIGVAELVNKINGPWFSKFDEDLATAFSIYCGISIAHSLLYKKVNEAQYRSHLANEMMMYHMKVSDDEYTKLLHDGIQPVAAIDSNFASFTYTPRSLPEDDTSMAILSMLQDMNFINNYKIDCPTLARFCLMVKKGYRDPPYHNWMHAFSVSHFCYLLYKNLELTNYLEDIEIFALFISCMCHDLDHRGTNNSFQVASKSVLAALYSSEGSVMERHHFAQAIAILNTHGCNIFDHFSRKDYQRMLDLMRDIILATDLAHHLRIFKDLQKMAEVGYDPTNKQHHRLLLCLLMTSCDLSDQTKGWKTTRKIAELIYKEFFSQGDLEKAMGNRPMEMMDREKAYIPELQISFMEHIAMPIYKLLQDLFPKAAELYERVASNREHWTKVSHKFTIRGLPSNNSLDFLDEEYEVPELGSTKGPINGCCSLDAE
Method: as §1, §2, §3, §4

[3] = mean ± S.E.M. (n), read-out: IC50 on phosphodiesterase isozyme 2

Row | Structure (SMILES) | IC50 [1] [µM] | IC50 [2, 3] [µM] | IC50 [2] [µM]
1 | O=c1c(O)c(-c2cc(O)c(O)c(O)c2)oc2cc(O)cc(O)c12 [Myricetin] | 12.4 ± 3.3 | 12.8 ± 0.6 | 
2 | O=c1c(O)c(-c2ccc(O)c(O)c2)oc2cc(O)cc(O)c12 [Quercetin] | 5.6 ± 1 | 17.9 ± 3.4 | 
3 | COc1ccc(C2CC(=O)c3c(O)cc(O)cc3O2)cc1O (stereo not drawn) [Hesperetin] | > 100 | > 100 | 
4 | COc1ccc(-c2coc3cc(O)cc(O)c3c2=O)cc1 [Biochanin A] | > 100 | 27.9 ± 4.1 | 
5 | O=c1cc(-c2ccc(O)c(O)c2)oc2cc(O[C@@H]3O[C@H](CO)[C@@H](O)[C@H](O)[C@H]3O)cc(O)c12 [Luteolin-7-glucoside] | > 100 | 35.1 ± 0.2 | 
6 | O=c1cc(-c2ccc(O)cc2)oc2cc(O)cc(O)c12 [Apigenin] | 10.5 ± 3.5 | 16.7 ± 6.3 | 
7 | O=c1c(-c2ccc(O)cc2)coc2cc(O)ccc12 [Daidzein] | 28.6 ± 8.5 | > 100 | 
8 | O=c1c(-c2ccc(O)cc2)coc2cc(O)cc(O)c12 [Genistein] | 12.9 ± 5.2 | 1.7 ± 0.2 | 
9 | O=c1cc(-c2ccc(O)c(O)c2)oc2cc(O)cc(O)c12 [Luteolin] | 10.1 ± 1.8 | 13.3 ± 0.8 | 
10 | O=c1cc(-c2ccccc2)oc2cc(O)cc(O)c12 [Chrysin] | > 100 | > 100 | 
11 | O=C1CC(c2ccc(O)c(O)c2)Oc2cc(O)cc(O)c21 (stereo not drawn) [Eriodictyol] | 52.5 ± 17.7 | > 100 | 
12 | COc1cc(O)c2c(=O)c(-c3ccc(O)cc3)coc2c1 [Prunetin] | > 100 |  | > 100
